Reference: ChEMBL document CHEMBL4433226, “Unnatural Tripeptides as Potent Positive Allosteric Modulators of T1R2/T1R3” (ACS Med Chem Lett, 2019)
Activity calls are given as the source filed them. No cut-off for these calls is given here.

Assays:
T1R2/T1R3 (Homo sapiens) [1] = target: T1, T1R2/T1R3 (Homo sapiens) (UniProt Q8TE23+Q7RTX0); experiment: Positive allosteric modulator activity at human T1R2/T1R3 expressed in PEAKrapid cells assessed as potentiation of sucrose-induced intracellular calcium influx by measuring sucrose EC50 at 30 uM measured for 120 secs by fluorescence based assay relative to FEMA4774; format: functional, cell-based
T1R2/T1R3 (Homo sapiens) [2] = target: T1, T1R2/T1R3 (Homo sapiens); experiment: Agonist activity at human T1R2/T1R3 expressed in PEAKrapid cells assessed as effect on intracellular calcium influx measured for 120 secs by fluorescence based assay; format: functional, cell-based
Homo sapiens = organism: Homo sapiens; experiment: Sweetness enhancing activity in trained human panelists assessed as rating of perceived sweetness intensity of depicted sucrose solutions at 10 ppm co-treated with 5% sucrose relative to original level; format: functional
T1R2/T1R3 (Homo sapiens) [3] = target: T1, T1R2/T1R3 (Homo sapiens); experiment: Positive allosteric modulator activity at human T1R2/T1R3 expressed in PEAKrapid cells assessed as potentiation of sucrose-induced intracellular calcium influx by measuring sucrose EC50 at 50 uM measured for 120 secs by fluorescence based assay relative to compound-2; format: functional, cell-based

CC[C@H](C)[C@@H](CCC(=O)Nc1cncc(C(=O)O)c1N)NC(=O)[C@@H](N)C1CCCCC1
Efficacy (T1R2/T1R3 (Homo sapiens) [1]): 51%
Activity (T1R2/T1R3 (Homo sapiens) [2]): inactive

CC[C@H](C)[C@H](N)C(=O)NCc1ccc(-c2cncc(C(=O)O)c2N)o1
Efficacy (T1R2/T1R3 (Homo sapiens) [1]): 55%
Activity (T1R2/T1R3 (Homo sapiens) [2]): inactive

CC(C)[C@@H](CCC(=O)Nc1cncc(C(=O)O)c1N)NC(=O)[C@@H](N)C1CCCCC1
Efficacy (T1R2/T1R3 (Homo sapiens) [1]): 45%
Activity (T1R2/T1R3 (Homo sapiens) [2]): inactive

CC(C)(CC(=O)Nc1cncc(C(=O)O)c1N)NC(=O)[C@@H](N)C1CCCCC1.Cl.Cl
Efficacy (T1R2/T1R3 (Homo sapiens) [1]): 67%
Activity (T1R2/T1R3 (Homo sapiens) [2]): inactive
fold change (FC) (Homo sapiens): 2.05

CC(C)[C@@H](CC(=O)Nc1cncc(C(=O)O)c1N)NC(=O)[C@@H](N)C1CCCCC1
Efficacy (T1R2/T1R3 (Homo sapiens) [1]): 35%
Activity (T1R2/T1R3 (Homo sapiens) [2]): inactive

Nc1c(NC(=O)CC[C@H](Cc2ccccc2)NC(=O)[C@@H](N)C2CCCCC2)cncc1C(=O)O
Efficacy (T1R2/T1R3 (Homo sapiens) [1]): 55%
Activity (T1R2/T1R3 (Homo sapiens) [2]): inactive

CC(C)[C@H](N)C(=O)NCc1ccc(-c2cncc(C(=O)O)c2N)o1
Efficacy (T1R2/T1R3 (Homo sapiens) [1]): 52%
Activity (T1R2/T1R3 (Homo sapiens) [2]): inactive

CC(C)C(=O)NCc1ccc(-c2cncc(C(=O)O)c2N)o1
Efficacy (T1R2/T1R3 (Homo sapiens) [1]): 37%
Activity (T1R2/T1R3 (Homo sapiens) [2]): inactive

CC(C)C[C@@H](CC(=O)Nc1cncc(C(=O)O)c1N)NC(=O)[C@@H](N)C1CCCCC1
Efficacy (T1R2/T1R3 (Homo sapiens) [1]): 38%
Activity (T1R2/T1R3 (Homo sapiens) [2]): inactive

C[C@@H](CC(=O)Nc1cncc(C(=O)O)c1N)NC(=O)[C@@H](N)C1CCCCC1
Efficacy (T1R2/T1R3 (Homo sapiens) [1]): 44%
Activity (T1R2/T1R3 (Homo sapiens) [2]): inactive

Cc1nc2ccccc2c(N)c1C(=O)O
Activity (T1R2/T1R3 (Homo sapiens) [2]): inactive

CC(C)CNC(=O)C(=O)NCc1ccc(-c2cncc(C(=O)O)c2N)o1
Efficacy (T1R2/T1R3 (Homo sapiens) [1]): 43%
Activity (T1R2/T1R3 (Homo sapiens) [2]): inactive

CC(C)(C)OC(=O)NCc1ccc(-c2cncc(C(=O)O)c2N)o1
Efficacy (T1R2/T1R3 (Homo sapiens) [1]): 41%
Activity (T1R2/T1R3 (Homo sapiens) [2]): inactive

CC(=O)NCc1ccc(-c2cncc(C(=O)O)c2N)o1
Efficacy (T1R2/T1R3 (Homo sapiens) [1]): 33%
Activity (T1R2/T1R3 (Homo sapiens) [2]): inactive

Nc1c(C(=O)O)cncc1-c1ccccc1
Activity (T1R2/T1R3 (Homo sapiens) [2]): inactive
Efficacy (T1R2/T1R3 (Homo sapiens) [3]): 80%

Nc1c(C(=O)O)cncc1-c1cccs1
Activity (T1R2/T1R3 (Homo sapiens) [2]): inactive
Efficacy (T1R2/T1R3 (Homo sapiens) [3]): 85%

Nc1c(C(=O)O)cncc1-c1ccco1
Activity (T1R2/T1R3 (Homo sapiens) [2]): inactive
Efficacy (T1R2/T1R3 (Homo sapiens) [3]): 83%

Nc1c(NC(=O)CCCCCCNC(=O)[C@@H](N)C2CCCCC2)cncc1C(=O)O
Efficacy (T1R2/T1R3 (Homo sapiens) [1]): 36%
Activity (T1R2/T1R3 (Homo sapiens) [2]): inactive

CC(C)CNC(=O)NCc1ccc(-c2cncc(C(=O)O)c2N)o1
Efficacy (T1R2/T1R3 (Homo sapiens) [1]): 48%
Activity (T1R2/T1R3 (Homo sapiens) [2]): inactive

Cl.Cl.Nc1c(C(=O)O)cncc1-c1ccc(CNC(=O)[C@@H](N)C2CCCCC2)o1
Efficacy (T1R2/T1R3 (Homo sapiens) [1]): 72%
Activity (T1R2/T1R3 (Homo sapiens) [2]): inactive
fold change (FC) (Homo sapiens): 1.77

Nc1c(NC(=O)CCCNC(=O)[C@@H](N)C2CCCCC2)cncc1C(=O)O
Efficacy (T1R2/T1R3 (Homo sapiens) [1]): 37%
Activity (T1R2/T1R3 (Homo sapiens) [2]): inactive

Cc1nc2cccc(OCC(C)(C)C(=O)NC(C)C)c2c(N)c1C(=O)O
Activity (T1R2/T1R3 (Homo sapiens) [2]): inactive
fold change (FC) (Homo sapiens): 1.97

CC(C)CC(=O)NCc1ccc(-c2cncc(C(=O)O)c2N)o1
Efficacy (T1R2/T1R3 (Homo sapiens) [1]): 42%
Activity (T1R2/T1R3 (Homo sapiens) [2]): inactive

CC(C)C[C@H](N)C(=O)NCc1ccc(-c2cncc(C(=O)O)c2N)o1
Efficacy (T1R2/T1R3 (Homo sapiens) [1]): 61%
Activity (T1R2/T1R3 (Homo sapiens) [2]): inactive

Cl.Cl.Nc1c(NC(=O)CCCCNC(=O)[C@@H](N)C2CCCCC2)cncc1C(=O)O
Efficacy (T1R2/T1R3 (Homo sapiens) [1]): 45%
Activity (T1R2/T1R3 (Homo sapiens) [2]): inactive
fold change (FC) (Homo sapiens): 1.96
